The results in this text go back to patent publication US6664247B2, “Pyrazole compounds useful as protein kinase inhibitors” (Vertex Pharmaceuticals Incorporated, priority 2000, dated 2003).

The experiment deals with T1, Aurora-2 (Homo sapiens, UniProt O14965).
T1 sequence (O14965 1-403): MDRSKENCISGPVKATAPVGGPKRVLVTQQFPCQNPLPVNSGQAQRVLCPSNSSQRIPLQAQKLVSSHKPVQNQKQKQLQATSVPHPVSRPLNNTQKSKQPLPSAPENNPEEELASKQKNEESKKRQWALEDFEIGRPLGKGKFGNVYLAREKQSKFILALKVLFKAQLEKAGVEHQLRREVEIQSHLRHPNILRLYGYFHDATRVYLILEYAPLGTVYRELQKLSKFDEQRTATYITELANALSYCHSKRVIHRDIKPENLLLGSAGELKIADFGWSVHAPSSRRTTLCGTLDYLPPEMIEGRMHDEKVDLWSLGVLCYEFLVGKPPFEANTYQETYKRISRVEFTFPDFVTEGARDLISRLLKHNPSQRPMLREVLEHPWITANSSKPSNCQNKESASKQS
As to the kind of experiment: Ki determination for the inhibition of Aurora-2 (coupled enzyme assay). The format is biochemical. As to conditions: 70 nM Aurora-2, 800 μM peptide LRRASLG, 30° C. On the procedure:
To an assay stock buffer solution containing 0.1 M HEPES 7.5, 10 mM MgCl2, 1 mM DTT, 25 mM NaCl, 2.5 mM phosphoenolpyruvate, […], 30 mg/ml pyruvate kinase, 10 mg/ml lactate dehydrogenase, 40 mM ATP, and 800 μM peptide (LRRASLG, American Peptide, Sunnyvale, Calif.) was added a DMSO solution of a compound of the present invention to a final concentration of 30 μM. The resulting mixture was incubated at 30° C. for 10 min. The reaction was initiated by the addition of 10 μL of Aurora-2 stock solution to give a final concentration of 70 nM in the assay. […] The Ki values were determined from the rate data as a function of inhibitor concentration.

With `Cc1cc(Nc2cc(-c3ccccc3)nc(Nc3ccccc3)n2)n[nH]1` [IIIc-1, (5-Methyl-2H-pyrazol-3-yl)-(6-phenyl-2-phenylamino-pyrimidin-4-yl)-amine], the Ki lay within 100 to 1000 nM.

As a reminder, the Ki is a dissociation constant, usually derived from enzyme kinetics or from competition with a known ligand.
